Laboratory results published in publication PMC9048505 (RSC Advances, 2020).

Experiments:
MCF-7 = assay: In vitro anti-proliferative activity, MTT assay, MCF-7; type: cell-based, human; details: for IC50: Homo sapiens, MCF7, MTT, 24 h treatment, mean ± S.D. of three separate experiments
Procedure: (§1) The cells were obtained from ATCC (American Type Culture Collection) via the Holding company for biological products and vaccines (VACSERA) (Cairo, Egypt). […] After incubation period, the cell lines were treated with different concentration of the synthesized compounds and incubated for 24 h. After treatment by 24 h, 20 μL of MTT solution (5 mg mL^−1) was added and incubated for 4 h. Dimethyl sulfoxide (100 μL) was added into each well to dissolve the formed purple formazan. […] The relative cell viability in percentage was calculated as (A570 of treated samples/A570 of untreated sample) X 100.

HCT-116 = assay: In vitro anti-proliferative activity, MTT assay, HCT-116; type: cell-based, human; details: for IC50: Homo sapiens, HCT-116, MTT, 24 h treatment, mean ± S.D. of three separate experiments
Procedure: as §1

HepG-2 = assay: In vitro anti-proliferative activity, MTT assay, HepG-2; type: cell-based, human; details: for IC50: Homo sapiens, HepG2, MTT, 24 h treatment, mean ± S.D. of three separate experiments
Procedure: as §1

purified bovine tubulin = biological target: T1, purified bovine tubulin (Bos taurus, UniProt P81947+Q6B856); assay: In vitro tubulin polymerization assay; type: biochemical; details: purified bovine tubulin 10 μM, 37 °C; read-out: IC50 Tubulin polymerization inhibition
T1 construct: purified bovine tubulin (10 μM); from tissue; host or cells: bovine
T1 sequence (Q6B856 whole entry): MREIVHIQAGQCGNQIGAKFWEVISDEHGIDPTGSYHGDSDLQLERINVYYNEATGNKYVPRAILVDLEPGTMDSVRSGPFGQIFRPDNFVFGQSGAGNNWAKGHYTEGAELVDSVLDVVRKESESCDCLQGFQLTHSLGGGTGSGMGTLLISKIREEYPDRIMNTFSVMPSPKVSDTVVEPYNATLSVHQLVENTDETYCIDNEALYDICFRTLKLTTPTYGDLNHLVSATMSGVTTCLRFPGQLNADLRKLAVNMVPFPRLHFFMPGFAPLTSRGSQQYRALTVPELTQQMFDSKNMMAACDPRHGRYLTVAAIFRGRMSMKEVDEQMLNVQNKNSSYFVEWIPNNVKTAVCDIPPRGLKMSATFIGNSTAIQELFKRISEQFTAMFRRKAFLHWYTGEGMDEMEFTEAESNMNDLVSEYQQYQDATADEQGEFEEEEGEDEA
T1 sequence (P81947 whole entry): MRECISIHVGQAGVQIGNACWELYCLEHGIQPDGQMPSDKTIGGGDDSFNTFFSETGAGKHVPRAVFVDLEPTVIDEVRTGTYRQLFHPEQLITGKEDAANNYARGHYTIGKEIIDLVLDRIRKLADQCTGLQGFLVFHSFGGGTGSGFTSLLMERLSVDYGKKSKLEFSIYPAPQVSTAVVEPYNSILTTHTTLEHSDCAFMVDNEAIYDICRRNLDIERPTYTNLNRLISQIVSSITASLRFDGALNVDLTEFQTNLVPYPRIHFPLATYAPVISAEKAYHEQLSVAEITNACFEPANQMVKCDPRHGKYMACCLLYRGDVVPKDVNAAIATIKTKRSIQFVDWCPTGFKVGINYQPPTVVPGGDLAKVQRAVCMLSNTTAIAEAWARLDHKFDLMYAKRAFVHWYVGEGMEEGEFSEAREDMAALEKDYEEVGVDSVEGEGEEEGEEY
Procedure: The inhibition assay on microtubule polymerization was evaluated turbidimetrically using a fluorescent plate reader.[52]

SMILES	IC50 (MCF-7) [µM]	IC50 (HCT-116) [µM]	IC50 (HepG-2) [µM]	IC50 (purified bovine tubulin) [µM]	melting point [°C]	times as active as colchicine against MCF-7 (MCF-7; ratio of IC50 values) [times]	times as active as colchicine against HCT-116 (HCT-116; ratio of IC50 values) [times]	times as active as colchicine against HepG-2 (HepG-2; ratio of IC50 values) [times]
C/C(=N\NC(N)=S)c1ccc(C)cc1 [Compound 3a, (E)-2-(1-(p-Tolyl)ethylidene)hydrazine-1-carbothioamide]	> 50	> 50	> 50					
COc1ccc(/C(C)=N/NC(N)=S)cc1OC [Compound 3b, (E)-2-(1-(3,4-Dimethoxyphenyl)ethylidene)hydrazine-1-carbothioamide]	22.4 ± 1	17.3 ± 1.4	12.9 ± 0.4	0.0445 ± 0.0023	205 to 207			
COc1ccc(/C=C2/N=C(N/N=C(\C)c3ccc(C)cc3)SC2=O)cc1 [Compound 4a, 4-((E)-4-Methoxybenzylidene)-2-(2-((E)-1-(p-tolyl)ethylidene)hydrazinyl) thiazol-5(4H)-one]	> 50	45.6 ± 3.5	34 ± 30.9		248 to 250			
C/C(=N\NC1=N/C(=C/c2ccc(Cl)cc2)C(=O)S1)c1ccc(C)cc1 [Compound 4b, 4-((E)-4-Chlorobenzylidene)-2-(2-((E)-1-(p-tolyl)ethylidene)hydrazinyl) thiazol-5(4H)-one]	22.4 ± 1	18.2 ± 1.3	11.14 ± 0.1		266 to 268			
C/C(=N\NC1=N/C(=C/c2ccc(O)cc2)C(=O)S1)c1ccc(C)cc1 [Compound 4c, 4-((E)-4-Hydroxybenzylidene)-2-(2-((E)-1-(p-tolyl)ethylidene)hydrazinyl) thiazol-5(4H)-one]	41.8 ± 1.2	38.5 ± 2.5	35.2 ± 0.8		272 to 274			
C/C(=N\NC1=N/C(=C/c2ccc(Cl)cc2Cl)C(=O)S1)c1ccc(C)cc1 [Compound 4d, 4-((E)-2,4-Dichlorobenzylidene)-2-(2-((E)-1-(p-tolyl)ethylidene)hydrazinyl) thiazol-5(4H)-one]	14.8 ± 0.6	10.6 ± 0.4	6.6 ± 0.1	0.0197 ± 0.0008	> 300			
COc1ccc(/C=C2/N=C(N/N=C(\C)c3ccc(C)cc3)SC2=O)cc1OC [Compound 4e, 4-((E)-3,4-Dimethoxybenzylidene)-2-(2-((E)-1-(p-tolyl)ethylidene)hydrazinyl) thiazol-5(4H)-one]	18.2 ± 0.5	13 ± 0.2	12.44 ± 0.1	0.0474 ± 0.0018	254 to 256			
C/C(=N\NC1=N/C(=C/c2ccc(O)cc2O)C(=O)S1)c1ccc(C)cc1 [Compound 4f, 4-((E)-2,4-Dihydroxybenzylidene)-2-(2-((E)-1-(p-tolyl)ethylidene)hydrazinyl) thiazol-5(4H)-one]	4.46 ± 0.1	5.66 ± 0.1	2.89 ± 0.1	0.00933 ± 0.0003		2.34	1.64	2.57
COc1ccc(/C=C2/N=C(N/N=C(\C)c3ccc(OC)c(OC)c3)SC2=O)cc1 [Compound 4g, 2-(2-((E)-1-(3,4-Dimethoxyphenyl)ethylidene)hydrazinyl)-4-((E)-4-methoxybenzylidene) thiazol-5(4H)-one]	17.4 ± 0.5	12.9 ± 0.6	8.68 ± 0.1		240 to 242			
COc1ccc(/C(C)=N/NC2=N/C(=C/c3ccc(O)cc3)C(=O)S2)cc1OC [Compound 4h, 2-(2-((E)-1-(3,4-Dimethoxyphenyl)ethylidene)hydrazinyl)-4-((E)-4-hydroxybenzylidene)thiazol-5(4H)-one]	48.8 ± 1.4	41.8 ± 1.6	37.5 ± 0.8		290 to 292			
COc1ccc(/C(C)=N/NC2=N/C(=C/c3ccc(Cl)cc3Cl)C(=O)S2)cc1OC [Compound 4i, 4-((E)-2,4-Dichlorobenzylidene)-2-(2-((E)-1-(3,4-dimethoxyphenyl)ethylid-ene)hydrazineyl) thiazol-5(4H)-one]	40.1 ± 1.9	40.5 ± 1.1	31.9 ± 0.8		> 300			
COc1ccc(/C=C2/N=C(N/N=C(\C)c3ccc(OC)c(OC)c3)SC2=O)cc1OC [Compound 4j, 4-((E)-3,4-Dimethoxybenzylidene)-2-(2-((E)-1-(3,4-dimethoxyphenyl)ethylid-ene)hydrazinyl)thiazol-5(4H)-one]	43.3 ± 1.8	22.9 ± 0.7	32.6 ± 0.9		232 to 236			
COc1ccc(/C(C)=N/NC2=N/C(=C/c3ccc(O)cc3O)C(=O)S2)cc1OC [Compound 4k, 4-((E)-2,4-Dihydroxybenzylidene)-2-(2-((E)-1-(3,4-dimethoxyphenyl)ethylid-ene)hydrazinyl)thiazol-5(4H)-one]	13.9 ± 0.5	11.7 ± 0.3	12.2 ± 0.4	0.05001 ± 0.0004	> 300			
COc1ccc(/C(C)=N/NC2=N/C(=C/c3cccs3)C(=O)S2)cc1OC [Compound 5b, (E)-2-(2-((E)-1-(3,4-Dimethoxyphenyl)ethylidene)hydrazinyl)-4-(thiophen-2-ylmethylene)thiazol-5(4H)-one]	21.8 ± 1	18.4 ± 0.2	17.5 ± 0.7		208 to 210			
C/C(=N\NC(N)=S)c1cccs1 [Compound 7a, (E)-2-(1-(Thiophen-2-yl)ethylidene)hydrazine-1-carbothioamide]	> 50	> 50	> 50					
C/C(=N\NC(N)=S)c1ccco1 [Compound 7b, (E)-2-(1-(Furan-2-yl)ethylidene)hydrazine-1-carbothioamide]	> 50	> 50	> 50					
COc1ccc(/C=C2/N=C(N/N=C(\C)c3cccs3)SC2=O)cc1 [Compound 8a, 4-((E)-4-Methoxybenzylidene)-2-(2-((E)-1-(thiophen-2-yl)ethylidene)hydra-zinyl)thiazol-5(4H)-one]	32.1 ± 1.2	35.5 ± 2	26.6 ± 0.9		243 to 245			
C/C(=N\NC1=N/C(=C/c2ccc(Cl)cc2)C(=O)S1)c1cccs1 [Compound 8b, 4-((E)-4-Chlorobenzylidene)-2-(2-((E)-1-(thiophen-2-yl)ethylidene)hydra-zinyl)thiazol-5(4H)-one]	18.2 ± 0.6	18.7 ± 0.6	19.5 ± 0.7		252 to 254			
C/C(=N\NC1=N/C(=C/c2ccc(O)cc2)C(=O)S1)c1cccs1 [Compound 8c, 4-((E)-4-Hydroxybenzylidene)-2-(2-((E)-1-(thiophen-2-yl)ethylidene)hydra-zinyl)thiazol-5(4H)-one]	19 ± 0.5	17.2 ± 0.9	12.2 ± 0.3		178 to 180			
C/C(=N\NC1=N/C(=C/c2ccc(Cl)cc2Cl)C(=O)S1)c1cccs1 [Compound 8d, 4-((E)-2,4-Dichlorobenzylidene)-2-(2-((E)-1-(thiophen-2-yl)ethylidene) hydrazinyl)thiazol-5(4H)-one]	> 50	48.6 ± 1.8	45.3 ± 1.2		274 to 276			
COc1ccc(/C=C2/N=C(N/N=C(\C)c3cccs3)SC2=O)cc1OC [Compound 8e, 4-((E)-3,4-Dimethoxybenzylidene)-2-(2-((E)-1-(thiophen-2-yl)ethylidene) hydrazinyl) thiazol-5(4H)-one]	25.8 ± 0.6	34.7 ± 1	27.8 ± 0.5		248 to 250			
C/C(=N\NC1=N/C(=C/c2ccc(O)cc2O)C(=O)S1)c1cccs1 [Compound 8f, 4-((E)-2,4-Dihydroxybenzylidene)-2-(2-((E)-1-(thiophen-2-yl)ethylidene) hydrazinyl) thiazol-5(4H)-one]	7.65 ± 0.2	8.96 ± 0.2	3.23 ± 0.1	0.0116 ± 0.0002	> 300			
COc1ccc(/C=C2/N=C(N/N=C(\C)c3ccco3)SC2=O)cc1 [Compound 8g, 2-(2-((E)-1-(Furan-2-yl)ethylidene)hydrazinyl)-4-((E)-4-methoxybenzylid-ene)thiazol-5(4H)-one]	9.29 ± 0.1	6.59 ± 0.1	4.69 ± 0.1	0.0142 ± 0.0003	288 to 290			
C/C(=N\NC1=N/C(=C/c2ccc(Cl)cc2)C(=O)S1)c1ccco1 [Compound 8h, 4-((E)-4-Chlorobenzylidene)-2-(2-((E)-1-(furan-2-yl)ethylidene)hydra-zinyl)thiazol-5(4H)-one]	20 ± 0.4	12 ± 0.3	10.3 ± 0.6	0.0384 ± 0.0014	272 to 274			
C/C(=N\NC1=N/C(=C/c2ccc(Cl)cc2Cl)C(=O)S1)c1ccco1 [Compound 8j, 4-((E)-2,4-Dichlorobenzylidene)-2-(2-((E)-1-(furan-2-yl)ethylidene) hydrazinyl) thiazol-5(4H)-one]	> 50	> 50	> 50		264 to 266			
C/C(=N\NC1=N/C(=C/c2cccs2)C(=O)S1)c1ccco1 [Compound 9b, (E)-2-(2-((E)-1-(Furan-2-yl)ethylidene)hydrazinyl)-4-(thiophen-2-ylmethylene) thiazol-5(4H)-one]	> 50	> 50	45.1 ± 0.7		203 to 205			
